Reference: ChEMBL document CHEMBL1126817, “Synthesis, Biological Properties, and Structure-Activity Relationships of Quinoxaline Angiotensin II Receptor Antagonists” (Bioorg Med Chem Lett, 1993)

How the values were obtained:
Angiotensin II receptor = molecular target: T1, Angiotensin II receptor (Rattus norvegicus, UniProt P29089+P25095+P35351); test: Tested for binding affinity by measuring displacement of [125I]-Sar1 Ile8 angiotensin II from rat adrenal cortical membranes; type: cell membranes, Membrane
T1 sequence (P29089 whole entry): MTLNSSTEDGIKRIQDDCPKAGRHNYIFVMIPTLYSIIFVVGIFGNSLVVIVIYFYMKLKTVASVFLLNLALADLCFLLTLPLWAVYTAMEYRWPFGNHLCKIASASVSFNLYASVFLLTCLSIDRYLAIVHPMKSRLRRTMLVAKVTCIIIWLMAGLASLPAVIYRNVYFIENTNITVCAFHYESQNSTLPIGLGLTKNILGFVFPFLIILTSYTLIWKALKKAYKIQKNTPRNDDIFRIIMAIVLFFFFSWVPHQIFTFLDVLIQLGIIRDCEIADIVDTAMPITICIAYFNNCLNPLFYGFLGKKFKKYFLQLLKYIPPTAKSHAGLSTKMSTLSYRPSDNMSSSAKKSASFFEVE
T1 sequence (P25095 whole entry): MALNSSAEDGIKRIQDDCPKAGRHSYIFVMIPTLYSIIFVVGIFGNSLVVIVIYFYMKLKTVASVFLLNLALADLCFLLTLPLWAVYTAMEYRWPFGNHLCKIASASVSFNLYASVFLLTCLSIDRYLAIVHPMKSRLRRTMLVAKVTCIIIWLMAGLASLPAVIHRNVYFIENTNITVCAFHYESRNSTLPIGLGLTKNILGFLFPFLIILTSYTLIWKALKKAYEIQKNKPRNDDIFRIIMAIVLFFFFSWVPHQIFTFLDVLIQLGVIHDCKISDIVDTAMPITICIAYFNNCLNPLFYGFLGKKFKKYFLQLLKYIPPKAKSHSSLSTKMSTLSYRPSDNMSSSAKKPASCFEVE
T1 sequence (P35351 whole entry): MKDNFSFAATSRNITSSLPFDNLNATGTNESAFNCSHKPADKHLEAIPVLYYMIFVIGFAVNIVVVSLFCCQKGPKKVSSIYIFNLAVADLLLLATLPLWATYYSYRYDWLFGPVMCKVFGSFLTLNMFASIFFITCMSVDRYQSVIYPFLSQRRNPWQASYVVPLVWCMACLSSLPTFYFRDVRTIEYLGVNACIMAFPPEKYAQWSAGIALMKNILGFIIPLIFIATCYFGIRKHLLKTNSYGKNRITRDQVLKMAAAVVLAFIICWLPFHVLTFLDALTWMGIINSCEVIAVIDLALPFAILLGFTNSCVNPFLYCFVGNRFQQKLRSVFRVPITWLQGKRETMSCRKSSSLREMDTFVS

Rattus norvegicus [1] = species: Rattus norvegicus; test: Tested for depression of contractions elicited by angiotensin II receptor in isolated rat aorta; type: functional
Rattus norvegicus [2] = test: Tested for percent inhibition of compound against angiotensin II induced pressor response after 1 umol/kg intravenous administration in rats; inactive; type: functional
Rattus norvegicus [3] = test: Compound was tested for inhibition of angiotensin II induced pressor response after intravenous administration in rats.; type: functional
Rattus norvegicus [4] = test: Tested for percent inhibition of compound against angiotensin II induced pressor response after 3 umol/kg intravenous administration at 70 min in rats; type: functional

Compound | Ki (Angiotensin II receptor) | Kb (Rattus norvegicus [1]) | inhibition in vivo at 1 µmol/kg (Rattus norvegicus [2]) | ED50 (Rattus norvegicus [3]) | inhibition in vivo at 3 µmol/kg (Rattus norvegicus [4])
CCCCc1nc2ccccc2nc1Cc1ccc(-c2ccccc2-c2nn[nH]n2)cc1 | 7 nM | 32 nM | – | – | –
CCCCc1c(Cc2ccc(-c3ccccc3-c3nn[nH]n3)cc2)nc2ccccc2[n+]1[O-] | 29 nM | 52 nM | – | – | –
CCCCc1nc2ccccc2[n+]([O-])c1Cc1ccc(-c2ccccc2-c2nn[nH]n2)cc1 | 2.1 nM | 5.3 nM | – | – | –
CCCCc1nc2cccc(C(=O)O)c2nc1Cc1ccc(-c2ccccc2-c2nn[nH]n2)cc1 | 6.9 nM | 0.49 nM | 7% | – | –
CCCCc1c(Cc2ccc(-c3ccccc3-c3nn[nH]n3)cc2)[n+]([O-])c2ccccc2[n+]1[O-] | 2.6 nM | 2.1 nM | – | 1.8 µmol/kg | 0%
